Data set [1] in a line: Solubility in water and other solvents.
Data set [2] is described as follows: Stability in water judged by appearance of the preparation (clear/hazy).

As for `CO[Si](CCCCl)(OC)OC` [Chloropropyl trimethoxysilane], the “Appearance after addition to water containing pentaerythritol” value in data set [1] (water containing pentaerythritol, after standing overnight) is reported as “clear solution”. Also, the Solubility in water entry in data set [1] (water, no stabilizer) was “insoluble”.
Take `CCCCCCCCCCCCCCCCCC[N+](C)(C)CCC[Si](OC)(OC)OC.[Cl-]` [none]: the “Stability (appearance of the preparation)” value is listed as “hazy” in data set [2] (initial pH 1.15, after 1 wk.); “hazy” in data set [2] (initial pH 2.0, after 1 mo.); “clear” in data set [2] (initial pH 2.0, after 1 wk.); “hazy” in data set [2] (initial pH 5.7, after 1 mo.); “clear” in data set [2] (initial pH 5.7, after 1 wk.); “hazy” in data set [2] (initial pH 6.5, after 1 mo.). Also, the “Stability (appearance of the preparation)” value is “clear” in data set [2] (initial pH 6.5, after 1 wk.) and “hazy/gel” in data set [2] (initial pH 8.5, after 1 wk.).
